Test results: the NIST ThermoML archive (doi:10.1021/je050399c)
± gives the expanded uncertainty stated by the source.

Settings: Fluid (supercritical or subcritical phases), Vibrating wire viscometry

N#N [nitrogen]
Settings | viscosity [mPa·s]
298.15 K, 100 kPa | 0.01778 ± 8.5e-05
298.15 K, 150 kPa | 0.01779 ± 8.3e-05
298.15 K, 200 kPa | 0.01781 ± 7.8e-05
298.15 K, 250 kPa | 0.01782 ± 7.7e-05
298.15 K, 300.1 kPa | 0.01782 ± 7.8e-05
298.15 K, 350.1 kPa | 0.01784 ± 7.7e-05
298.15 K, 400 kPa | 0.01784 ± 7.7e-05
298.15 K, 450.1 kPa | 0.01784 ± 7.6e-05
298.15 K, 500.1 kPa | 0.01785 ± 7.6e-05
298.15 K, 600.1 kPa | 0.01786 ± 7.6e-05
298.15 K, 700.1 kPa | 0.01787 ± 7.7e-05
298.15 K, 800.1 kPa | 0.01789 ± 7.7e-05
298.15 K, 900.1 kPa | 0.0179 ± 7.8e-05
298.15 K, 1000.2 kPa | 0.01792 ± 7.8e-05
298.15 K, 1100.2 kPa | 0.01793 ± 7.8e-05
298.15 K, 1200.1 kPa | 0.01795 ± 0.00015
298.15 K, 1300.1 kPa | 0.01796 ± 7.8e-05
298.15 K, 1400.1 kPa | 0.01797 ± 0.00014
298.15 K, 1500.1 kPa | 0.01798 ± 7.8e-05
298.15 K, 1599.9 kPa | 0.018 ± 7.9e-05
298.15 K, 1700 kPa | 0.01801 ± 7.9e-05
298.15 K, 1800.1 kPa | 0.01803 ± 7.8e-05
298.15 K, 1899.9 kPa | 0.01805 ± 7.8e-05
298.15 K, 2000.4 kPa | 0.01806 ± 7.8e-05
298.15 K, 2250 kPa | 0.0181 ± 8.1e-05
298.15 K, 2500.3 kPa | 0.01815 ± 8.1e-05
298.15 K, 2750.4 kPa | 0.01818 ± 7.9e-05
298.15 K, 3000.9 kPa | 0.01822 ± 7.9e-05
298.15 K, 3250.3 kPa | 0.01825 ± 8.3e-05
298.15 K, 3500.7 kPa | 0.01831 ± 8.4e-05
298.15 K, 3750.7 kPa | 0.01835 ± 8.3e-05
298.15 K, 4001 kPa | 0.01841 ± 8.5e-05
298.15 K, 4250.5 kPa | 0.01846 ± 8.5e-05
298.15 K, 4499.8 kPa | 0.01851 ± 8.8e-05
298.15 K, 4749.9 kPa | 0.01858 ± 8.4e-05
298.15 K, 5000.5 kPa | 0.01861 ± 8.4e-05
298.15 K, 5500.9 kPa | 0.01872 ± 8.9e-05
298.15 K, 6005.4 kPa | 0.01884 ± 9.1e-05
298.15 K, 6500.4 kPa | 0.01897 ± 9.1e-05
298.15 K, 7002.5 kPa | 0.01909 ± 9.1e-05
298.15 K, 7501.6 kPa | 0.01921 ± 9.2e-05
298.15 K, 8000.9 kPa | 0.01934 ± 9.3e-05
298.15 K, 8500.9 kPa | 0.01947 ± 9.5e-05
298.15 K, 8999.3 kPa | 0.01961 ± 9.5e-05
298.15 K, 9499.4 kPa | 0.01973 ± 9.6e-05
298.15 K, 10001 kPa | 0.01988 ± 9.9e-05
298.15 K, 11005 kPa | 0.02018 ± 0.0001
298.15 K, 12002 kPa | 0.02047 ± 0.0001
298.15 K, 13004 kPa | 0.02079 ± 0.00011
298.15 K, 14004 kPa | 0.0211 ± 0.00011
298.15 K, 15006 kPa | 0.02142 ± 0.00011
298.15 K, 16001 kPa | 0.02176 ± 0.00011
298.15 K, 17010 kPa | 0.02211 ± 0.00011
298.15 K, 18008 kPa | 0.02247 ± 0.00012
298.15 K, 19006 kPa | 0.02284 ± 0.00012
298.15 K, 20005 kPa | 0.02318 ± 0.00012
298.15 K, 21000 kPa | 0.02354 ± 0.00012
298.15 K, 22001 kPa | 0.02391 ± 0.00012
298.15 K, 23008 kPa | 0.02429 ± 0.00012
298.15 K, 24003 kPa | 0.02466 ± 0.00012
298.15 K, 25014 kPa | 0.02503 ± 0.00013
298.15 K, 26005 kPa | 0.02541 ± 0.00013
298.15 K, 27010 kPa | 0.02581 ± 0.00013
298.15 K, 28009 kPa | 0.0262 ± 0.00013
298.15 K, 29013 kPa | 0.02657 ± 0.00013
298.15 K, 30010 kPa | 0.02695 ± 0.00013
298.15 K, 31009 kPa | 0.02735 ± 0.00014
298.15 K, 31995 kPa | 0.02774 ± 0.00014
298.15 K, 33004 kPa | 0.02814 ± 0.00014
298.15 K, 33949 kPa | 0.02852 ± 0.00014
298.15 K, 35027 kPa | 0.02893 ± 0.00014
323.15 K, 100 kPa | 0.0189 ± 8.9e-05
323.15 K, 200.1 kPa | 0.01893 ± 8.4e-05
323.15 K, 300.1 kPa | 0.01895 ± 8.2e-05
323.15 K, 400.1 kPa | 0.01896 ± 8e-05
323.15 K, 600.1 kPa | 0.01898 ± 7.9e-05
323.15 K, 800.3 kPa | 0.019 ± 7.9e-05
323.15 K, 1000.6 kPa | 0.01903 ± 8.1e-05
323.15 K, 1500.7 kPa | 0.0191 ± 8.1e-05
323.15 K, 2000.7 kPa | 0.01917 ± 8.2e-05
323.15 K, 2500.9 kPa | 0.01924 ± 8.3e-05
323.15 K, 3000.8 kPa | 0.01932 ± 8.4e-05
323.15 K, 3502.6 kPa | 0.0194 ± 8.4e-05
323.15 K, 4001.8 kPa | 0.01948 ± 8.5e-05
323.15 K, 4500.4 kPa | 0.01957 ± 8.6e-05
323.15 K, 5002.2 kPa | 0.01965 ± 8.7e-05
323.15 K, 5503.9 kPa | 0.01976 ± 8.7e-05
323.15 K, 6003.6 kPa | 0.01983 ± 8.7e-05
323.15 K, 6503.6 kPa | 0.01994 ± 9.2e-05
323.15 K, 7009.3 kPa | 0.02005 ± 9.2e-05
323.15 K, 7502.7 kPa | 0.02015 ± 9.2e-05
323.15 K, 8003.1 kPa | 0.02027 ± 9.3e-05
323.15 K, 8504.2 kPa | 0.02038 ± 9.4e-05
323.15 K, 9006.1 kPa | 0.0205 ± 9.5e-05
323.15 K, 9500.4 kPa | 0.02062 ± 9.5e-05
323.15 K, 10007 kPa | 0.02073 ± 9.6e-05
323.15 K, 11007 kPa | 0.02098 ± 9.9e-05
323.15 K, 12006 kPa | 0.02124 ± 0.0001
323.15 K, 13005 kPa | 0.02151 ± 0.0001
323.15 K, 14005 kPa | 0.02176 ± 0.0001
323.15 K, 15005 kPa | 0.02205 ± 0.00011
323.15 K, 16009 kPa | 0.02233 ± 0.00011
323.15 K, 17007 kPa | 0.02262 ± 0.00011
323.15 K, 18000 kPa | 0.02292 ± 0.00011
323.15 K, 19007 kPa | 0.02323 ± 0.00011
323.15 K, 19999 kPa | 0.02354 ± 0.00011
323.15 K, 21010 kPa | 0.02383 ± 0.00011
323.15 K, 22011 kPa | 0.02417 ± 0.00012
323.15 K, 23013 kPa | 0.02451 ± 0.00012
323.15 K, 24004 kPa | 0.02481 ± 0.00012
323.15 K, 25005 kPa | 0.02511 ± 0.00012
323.15 K, 26011 kPa | 0.02547 ± 0.00012
323.15 K, 27000 kPa | 0.02579 ± 0.00012
323.15 K, 28012 kPa | 0.02613 ± 0.00012
323.15 K, 29014 kPa | 0.02646 ± 0.00012
323.15 K, 30014 kPa | 0.02677 ± 0.00013
323.15 K, 31013 kPa | 0.02714 ± 0.00013
323.15 K, 31997 kPa | 0.02746 ± 0.00013
323.15 K, 33007 kPa | 0.02781 ± 0.00013
323.15 K, 34009 kPa | 0.02814 ± 0.00013
323.15 K, 35066 kPa | 0.02852 ± 0.00015
348.15 K, 100.1 kPa | 0.02 ± 8.8e-05
348.15 K, 200.1 kPa | 0.02003 ± 9.1e-05
348.15 K, 300.1 kPa | 0.02004 ± 8.5e-05
348.15 K, 400.2 kPa | 0.02005 ± 8.4e-05
348.15 K, 600.5 kPa | 0.02007 ± 8.3e-05
348.15 K, 800.6 kPa | 0.02009 ± 8.3e-05
348.15 K, 1000.9 kPa | 0.02011 ± 8.5e-05
348.15 K, 1501.9 kPa | 0.02017 ± 8.4e-05
348.15 K, 2001.6 kPa | 0.02023 ± 8.5e-05
348.15 K, 2502 kPa | 0.0203 ± 8.6e-05
348.15 K, 3002.6 kPa | 0.02037 ± 8.7e-05
348.15 K, 3504.2 kPa | 0.02044 ± 8.7e-05
348.15 K, 3999.6 kPa | 0.02051 ± 8.7e-05
348.15 K, 4508.2 kPa | 0.02058 ± 8.8e-05
348.15 K, 5002.2 kPa | 0.02066 ± 8.9e-05
348.15 K, 5502.8 kPa | 0.02074 ± 9.1e-05
348.15 K, 6003.4 kPa | 0.02084 ± 9.1e-05
348.15 K, 6501.3 kPa | 0.02092 ± 9.1e-05
348.15 K, 7002.3 kPa | 0.02101 ± 9.2e-05
348.15 K, 7502.5 kPa | 0.0211 ± 9.3e-05
348.15 K, 8002.1 kPa | 0.0212 ± 9.3e-05
348.15 K, 8501.8 kPa | 0.02129 ± 9.4e-05
348.15 K, 9004 kPa | 0.02139 ± 9.6e-05
348.15 K, 9498.9 kPa | 0.0215 ± 9.7e-05
348.15 K, 10001 kPa | 0.02161 ± 9.6e-05
348.15 K, 11007 kPa | 0.02182 ± 9.7e-05
348.15 K, 12007 kPa | 0.02203 ± 9.9e-05
348.15 K, 13006 kPa | 0.02227 ± 0.0001
348.15 K, 14001 kPa | 0.0225 ± 0.0001
348.15 K, 15011 kPa | 0.02274 ± 0.0001
348.15 K, 16001 kPa | 0.02299 ± 0.00011
348.15 K, 17002 kPa | 0.02326 ± 0.00011
348.15 K, 18004 kPa | 0.02351 ± 0.00011
348.15 K, 19008 kPa | 0.02378 ± 0.00011
348.15 K, 20006 kPa | 0.02404 ± 0.00011
348.15 K, 21004 kPa | 0.02431 ± 0.00011
348.15 K, 22011 kPa | 0.02458 ± 0.00011
348.15 K, 23006 kPa | 0.02486 ± 0.00012
348.15 K, 24004 kPa | 0.02515 ± 0.00012
